Laboratory results from patent publication US5061626A, “Antigenic anarogues of platelet activating factor” (University of Sydney, priority 1986, dated 1991).

What was measured:
PAF-antibodies = experiment: Competition assay of test substance against ^3 H-PAF for binding to PAF-antibodies; design: species or system rabbit; conditions: ^3 H-PAF 22,676 cpm
Experimental: The resulting mixture was centrifuged, washed twice with phosphate buffered saline containing 0.1% "Tween" 20, centrifuged and the sediment transferred in water (200 μl) to the liquid scintillant "Aquasol" (3 ml) and counted in a liquid scintillation counter.

PAF-acetylhydrolase [1] = experiment: Determination of PAF-acetylhydrolase activity in diluted human serum (remaining PAF read by platelet aggregation); format: biochemical; conditions: human sera diluted 1 in 100 with PBS, 27 hours at 25° C.
Experimental: (§1) Sera were diluted 1 in 100 in either PBS or 0.1% "Tween" in PBS (v/v). Diluted acid-treated sera were prepared by mixing sera (1 vol.) with 0.1M citrate buffer pH 3.0 (2 vol.), and then 15 minutes later with PBS ([…].).
(§2) The solution (50μl) was then tested for platelet aggregation activity at 37° C. in a Payton dual channel aggregometer using human platelet-rich plasma (500 μl).

PAF-acetylhydrolase [2] = experiment: Determination of PAF-acetylhydrolase activity in diluted rabbit serum (remaining PAF read by platelet aggregation); format: biochemical; conditions: rabbit sera diluted 1 in 100 with PBS, 27 hours at 25° C.
Experimental: as §1, §2

| Molecule | ASSAY COUNT (PAF-antibodies; test substance 580 ng) | ASSAY COUNT (PAF-antibodies; test substance 5,800 ng) | ASSAY COUNT (PAF-antibodies; test substance 500 ng) | ASSAY/CONTROL (PAF-antibodies; test substance 500 ng) [%] | ASSAY COUNT (PAF-antibodies; test substance 5,000 ng) | stability of PAF in serum (PAF-acetylhydrolase [1]) | stability of PAF in serum (PAF-acetylhydrolase [2]) | ASSAY COUNT (PAF-antibodies; test substance 0.5 ng) | ASSAY/CONTROL (PAF-antibodies; test substance 0.5 ng) [%] | ASSAY COUNT (PAF-antibodies; test substance 5 ng) | ASSAY/CONTROL (PAF-antibodies; test substance 5 ng) [%] | ASSAY COUNT (PAF-antibodies; test substance 50 ng) | ASSAY/CONTROL (PAF-antibodies; test substance 50 ng) [%] | ASSAY/CONTROL (PAF-antibodies; test substance 5,000 ng) [%] |
| --- | --- | --- | --- | --- | --- | --- | --- | --- | --- | --- | --- | --- | --- | --- |
| CCCCCCCCCCCCCCCCOC[C@@H](O)COP(=O)([O-])OCC[N+](C)(C)C [lyso-PAF] | 2,744 cpm | 2,746 cpm |  |  |  |  |  |  |  |  |  |  |  |  |
| lecithin |  |  | 2,545 cpm | 99.6 | 2,994 cpm |  |  |  |  |  |  |  |  |  |
| 1-O-alkyl-2-O-acetyl-sn-glycero-3-phosphocholine [PAF] |  |  | 598 cpm | 18.6 | 228 cpm | destroyed | destroyed | 2,561 cpm | 95.2 | 2,316 cpm | 85.7 | 1,602 cpm | 57.8 | 4.1 |
| lyso-lecithin |  |  | 2,668 cpm | 99.4 | 2,658 cpm |  |  |  |  |  |  |  |  | 99.0 |
